Results reported in patent publication US6492405B2, “Nitric oxide donors and pharmaceutical compositions containing them” (Yissum Research Development Company of the Hebrew …, priority 1999, dated 2002).

System: vascular cGMP
Assay: vasorelaxant activity measured as increase in vascular cGMP in rat aorta after i.v. push, before and after 18 hr continuous i.v. infusion
Type: in vivo, male Sprague-Dawley rats
Conditions: for cGMP Post-infusion / cGMP Pre-infusion: rat aorta, i.v. push, nitroglycerin equimolar doses; for cGMP Post-infusion: after 18 hr continuous i.v. infusion of the same compound; for cGMP Pre-infusion: before 18 hr continuous i.v. infusion
Experimental: Representative for the new compounds, the vasorelaxant activities (measured as the ability of the tested drug to induce an increase in vascular cGMP) of the example compounds 1 to 6 were determined and compared to activity of nitroglycerin under the same experimental conditions following single and sustained exposure of rats to the compound.
For this purpose the compound to be tested was administered, in each case, to 8 male Sprague-Dawley rats (300-400 g) before and after an 18 hr continuous intravenous infusion of the compound. […] After drug administration (i.v. push), the rat was sacrificed, the aorta immediately removed and processed for cGMP measurement as has been described in detail by us. All of the tested new compounds were utilized in nitroglycerin equimolar doses, either before of after the “tolerance” induction period.
The following table summarizes the results obtained following administration of either nitroglycerin or the tested compounds before and after an 18 hr continuous exposure to the same compound: […]

| Compound | cGMP Post-infusion [pmol/g tissue] | cGMP Pre-infusion [pmol/g tissue] | tolerance to the cGMP-inducing activity (after 18 hr continuous in vivo administration) |
| --- | --- | --- | --- |
| 1,1′-Bisthiomethyl-3,4-dihydroxy-cyclohexane-dinitrate ester [Compound 4] | 169 ± 13 | 149 ± 11 | – |
| 1,2-Dihydroxy-dinitrate-6,8-dithiane [Compound 6] | 179 ± 12 | 193 ± 17 | – |
| O=[N+]([O-])OCC1(CO[N+](=O)[O-])CCSSC1 [Compound 3, 1,1-Diemethanol-dinitrate-3,4-dithiane] | 174 ± 16 | 171 ± 14 | – |
| O=[N+]([O-])OCCCCCC1CCSS1 (centres unmarked) [Compound 5, Thioctyl Alcohol Nitrate Ester] | 113 ± 11 | 123 ± 13 | – |
| O=[N+]([O-])OCC(CO[N+](=O)[O-])O[N+](=O)[O-] [Nitroglycerin, nitroglycerin, reference compound] | 68 ± 9 | 153 ± 13 | developed early |
